In paper PMC12583094, “A novel antioxidant peptide from black soybean [Glycine max (L.) Merr.] with verified MPO interaction and multi-scale antioxidant activity” (Frontiers in Nutrition, 2025):
Where two headings read alike, the source gives them in different places. No end group written: not given here.

Key:
[1] = cited from earlier work; for radical scavenging activity: peptides from Thunnus albacares protein hydrolysates; for antioxidant bioactivity: peptides from sturgeon ovarian protein hydrolysates; for antioxidant activity and free radical scavenging: peptides from black soybean processing by-products
Text: Black soybean [Glycine max (L.) Merr.], belonging to the family Fabaceae, subfamily Faboideae, genus Glycine, and subgenus Soja, is a traditional legume crop characterized by its black seed coat. It has been cultivated in China for thousands of years, and China remains the largest producer and consumer of soybeans globally, with substantial production and consumption of black soybean in particular ([8]).

[2] = DPPH radical scavenging assay; format: biochemical; conditions: 50 μL + 450 μL of 0.1 mM DPPH in anhydrous ethanol, dark, room temperature, 30 min, 517 nm, mean ± SD, n = 3
Description: Prior to the assay, the microplate reader was preheated for 1 h. The peptide samples were dissolved in sterile water to prepare a concentration gradient of 0.1, 1, 5, and 10 mg/mL. For the DPPH assay, 50 μL of sterile water and 450 μL of DPPH solution (0.1 mM in anhydrous ethanol) were added to the blank tube. For the control tube, 50 μL of peptide solution and 450 μL of anhydrous ethanol were mixed. For the sample tubes, 50 μL of peptide solution and 450 μL of DPPH solution were combined. All mixtures were incubated in the dark at room temperature for 30 min. Absorbance was measured at 517 nm using a UV–visible spectrophotometer.

[3] = ABTS radical scavenging assay; format: biochemical; conditions: ABTS solution diluted 20-fold with anhydrous ethanol, 30 min dark, 734 nm, mean ± SD, n = 3
Description: For the ABTS assay, ABTS radical solution was prepared by mixing Reagent A and Reagent B (from the assay kit) at a 1:1 volume ratio, followed by incubation in the dark for 12 h. The resulting ABTS solution was diluted 20-fold with anhydrous ethanol before use. The blank, control, and sample solutions were prepared in the same manner as in the DPPH assay, followed by 30 min of dark incubation. Absorbance was measured at 734 nm. The radical scavenging activity was calculated using the formula reported by Thanyaporn Aursuwanna et al. ([22]).

[4] = peptide from cherry seeds; cited from earlier work
[5] = peptide from cherry seeds, molecular dynamics simulation; cited from earlier work
Text: The root mean square deviation (RMSD) value reflects the deviation of the complex from its initial conformation over the course of the simulation. RMSD fluctuations are directly indicative of conformational stability, with deviations below 0.5 nm generally considered acceptable ([34]). […] In this surface, blue to white regions indicate low free energy value, whereas yellow to red regions reflect higher energy states. […] For the MPO–[…] complex, the energy p ...

[6] = cited from earlier work; for ABTS radical scavenging rate at 1 mg/mL / DPPH radical scavenging rate at 1 mg/mL: peptide from Glycine max hydrolysate
Text: (§1) Similarly, Zhang et al. identified two antioxidant peptides, VVFVDRL and […], from Glycine max hydrolysate, both of which contain N-terminal valine residues. […] This enhanced activity was attributed to the presence of repeating amino acids within the peptide sequences, a feature that has also been associated with stronger bioactivity in antioxidant peptid ...

MPO = conditions: cited from earlier work
Text: as §1

HaCaT cells [7] = experiment: CCK8 cell viability, concentration screening in HaCaT cells; format: cell-based, human; conditions: 24 h, CCK8, 450 nm, vs control, n = 3
Description: (§2) HaCaT cell recovery, culture, and subculture were performed with reference to the method described by Yusha Zi et al., with some modifications ([23]). For recovery, cryopreserved HaCaT cells were retrieved from liquid nitrogen storage and quickly thawed in a 37 °C water bath with gentle shaking. Just before complete thawing, the tube was removed from the water bath, and the cell suspension was immediately transferred into a 15 mL centrifuge tube containing 9 mL of pre-warmed complete medium. The complete medium consisted of DMEM supplemented with 10% fetal bovine serum (FBS) and 1% penicillin–streptomycin (P/S). Cells were centrifuged at 800 rpm for 5 min at 4 °C. After discarding the supernatant, the cell pellet was resuspended in 5 mL of fresh complete medium and transferred to a culture flask equipped with a ventilated cap. Cells were incubated in a humidified incubator at 37 °C with 5% CO₂ and 95% humidity.
For subculturing, when cell confluence reached approximately 80%, the medium was discarded, and the cells were gently rinsed three times with 2 mL of PBS. Then, 1 mL of 0.25% trypsin solution was added, and the flask was incubated at 37 °C for about 1 min. Once the cells became round and partially detached (as observed under a microscope), 3 mL of complete medium was added to terminate the digestion. The cell suspension was gently pipetted to disperse the cells and transferred to a 15 mL centrifuge tube. After centrifugation at 800 rpm for 5 min at 4 °C, the supernatant was discarded. The pellet was resuspended in fresh medium and seeded into new culture flasks at a ratio of 1:3, followed by incubation under the same culture conditions.
After digestion and resuspension, HaCaT cells were seeded into a 96-well plate at a concentration of 1 × 10^^4 cells/ml, with 100 μL of complete culture medium added to each well. Three wells with no cells were treated with an equal volume of complete culture medium as the blank group. The cells were incubated for 24 h to allow attachment. For the experiment, the control and blank groups were replaced with an equal volume of fresh medium, while the treatment groups were treated with a concentration gradient of 100, 200, 500, 1,000, and 1,500 μg/mL H2O2 and peptide samples. The H2O2 group was incubated for 1 h, while the peptide sample group was incubated for 24 h. After incubation, the original medium was discarded, and 100 μL of CCK8 working solution (prepared from 90% DMEM + 10% CCK8 reagent) was added to each well. The blank group, which contained no cells, was used as the reference. The plate was incubated for an appropriate period, and the absorbance at 450 nm was measured using a microplate reader. Cell viability was calculated using the following formula:
Cell viability(%)=100%×(ODsample−ODblank)/(ODcontrol−ODblank).

HaCaT cells [8] = format: cell-based, human; conditions: 24 h, 1000 μg/mL
Description: as §2, with “humidity. For subculturing, when cell confluence reached approximately 80%, the medium was discarded, and the cells were gently rinsed three times with 2 mL of PBS. […] The plate was incubated for an appropriate period, and the absorbance at 450 nm was measured using a microplate reader. Cell viability was calculated using the following formula: Cell viability(%)=100%×(ODsample−ODblank)/(ODcontrol−ODblank). […] The absorbance was measured and cell viability was calculated under the same conditions.” for “humidity.”

[9] = peptide from foxtail millet prolamin

Substance: ACGSDGK [antioxidant peptide from Thunnus albacares protein hydrolysates]
- radical scavenging activity [1]: significant radical scavenging activity

Substance: FDWDRL [antioxidant peptide from sturgeon ovarian protein hydrolysates]
- antioxidant bioactivity [1]: demonstrated antioxidant bioactivity

Substance: FEGPPFKF [antioxidant peptide from sturgeon ovarian protein hydrolysates]
- antioxidant bioactivity [1]: demonstrated antioxidant bioactivity

Substance: Glutathione [GSH]
- DPPH radical scavenging rate at 0.1 mg/mL ([2]; 0.1 mg/mL peptide solution): 27.72 ± 2.86%
- DPPH radical scavenging rate at 1 mg/mL ([2]; 1 mg/mL peptide solution): 54.36 ± 3.61%
- DPPH radical scavenging rate at 5 mg/mL ([2]; 5 mg/mL peptide solution): 69.01 ± 4.68%
- DPPH radical scavenging rate at 10 mg/mL ([2]; 10 mg/mL peptide solution): 84.87 ± 1.39%
- ABTS radical scavenging rate at 0.1 mg/mL ([3]; 0.1 mg/mL): 24.52 ± 4.01%
- ABTS radical scavenging rate at 1 mg/mL ([3]; 1 mg/mL): 40.76 ± 3.01%
- ABTS radical scavenging rate at 5 mg/mL ([3]; 5 mg/mL): 60.28 ± 3.58%
- ABTS radical scavenging rate at 10 mg/mL ([3]; 10 mg/mL): 82.92 ± 1.27%

Substance: IVPK [peptide from black soybean processing by-products]
- antioxidant activity and free radical scavenging [1]: exhibited antioxidant activity and free radical scavenging capacity

Substance: KFCSGHA [antioxidant peptide from Thunnus albacares protein hydrolysates]
- radical scavenging activity [1]: significant radical scavenging activity

Substance: LVPK [peptide from black soybean processing by-products]
- antioxidant activity and free radical scavenging [1]: exhibited antioxidant activity and free radical scavenging capacity

Substance: LYSPH [antioxidant peptide LYSPH, derived from cherry seeds]
- docking binding energy [4]: -7.9 kcal/mol
- number of hydrogen bonds [5]: 3 ± 1 hydrogen bonds

Substance: VIYVVDLR [antioxidant peptide from Glycine max hydrolysate]
- ABTS radical scavenging rate at 1 mg/mL [6]: ~50%
- DPPH radical scavenging rate at 1 mg/mL [6]: approximately 40%

Substance: VLIPMP [antioxidant peptide from foxtail millet prolamin]
- ABTS IC₅₀ [6, 9]: 2.33 mg/mL
- DPPH IC₅₀ [6, 9]: 4.45 mg/mL
- number of hydrogen bonds formed with MPO (MPO): higher than that observed for VPNHFNAP
- stability of the VLIPMP–MPO complex (MPO; molecular dynamics simulations): confirmed the stability of the VLIPMP–MPO complex
- binding free energy calculated by MM-PBSA (MPO; with MPO): -40.83 ± 7.64 kcal/mol

Substance: VPNHFNAP
- effect on HaCaT cell viability, 1500 μg/mL (HaCaT cells [7]; peptide 1500 μg/mL): a marked decrease
- effect on HaCaT cell viability, 100 to 1,000 μg/mL (HaCaT cells [7]; peptide 100 to 1,000 μg/mL): did not cause significant changes in cell viability
- HaCaT cell viability, peptide pretreatment then H2O2 (HaCaT cells [8]): 64.38 ± 4.22%

Substance: VVFVDRL [antioxidant peptide from Glycine max hydrolysate]
- ABTS radical scavenging rate at 1 mg/mL [6]: ~50%
- DPPH radical scavenging rate at 1 mg/mL [6]: approximately 40%
